System: STZ-induced diabetes model mouse (STZ-mouse)
Experiment: Blood glucose level in STZ-induced diabetes model mouse (Test Example 4-1)
Type: in vivo, CD-1 (ICR) mice
Conditions: STZ-mice, Day 14 after the treatment
Procedure: The “complex containing an active substance” was injected into the intestine of a STZ-induced diabetes model mouse (STZ-mouse) together with the “assistant agent for assisting introduction into a living body”, and then measurement of a “change in plasma glucose (blood glucose level) (Test Example 4-1)” and “measurement of the plasma insulin level (Test Example 4-2)” at the end of the treatment were performed.
“Compositions containing an active substance” below were prepared by mixing the above-described “active substance complex (Bio3 formulation)” with the respective “assistant agents for assisting introduction into a living body” above, and were then used in the experiments.
CD-1 (ICR) mice (male, 4 weeks old) purchased from Charles River Japan were preliminarily kept for 1 week before experiment.
Procedure for Producing Disease Model Mice STZ (40 mg/kg) prepared in a citrate buffer (100 mmol/L, pH 4.5) was intravenously administered (iv) to the tail veins of the above-mentioned mice.
One week after, blood was collected from ophthalmic venous plexus of the mice with a capillary, and the mice were divided into the following four groups (six mice per group) based on the measured blood glucose levels such that the average blood glucose levels of the groups were equal to one another as follows. […]

Substance: insulin
- blood glucose level as ratio to the non-treated control group: up to 60%

From US20220218765A1, “ASSISTANT AGENT FOR ASSISTING INTRODUCTION INTO LIVING BODY AND METHOD OF UTILIZING THE SAME” (SHINBIOSIS CORPORATION, priority 2019, published 2022)
